Patent publication US9682013B2, “Pharmaceutical compositions comprising human antibodies to PCSK9” (SANOFI BIOTECHNOLOGY, priority 2011, dated 2017)

System: patients with Heterozygous Familial Hypercholesterolemia (HeFH) or other forms of primary hypercholesteremia (nonFH)
Experiment: Study 3: randomized, placebo-controlled, multiple ascending dose trial of 316P in HeFH and nonFH
Type: in vivo, human
Settings: for mean % reduction in LDL-C on day 57: on top of statins, combined FH and nonFH populations
Text: This is a randomized, double-blind, placebo-controlled, multiple ascending dose, multicenter clinical trial in subjects with primary hypercholesterolemia.
The objective of this study was to determine whether a fully human monoclonal antibody to PCSK9 (316P) is effective and safe as either a primary or adjunctive agent to lower LDL-C in patients with Heterozygous Familial Hypercholesterolemia (HeFH) or other forms of primary hypercholesteremia (nonFH). 61 adults with either documented HeFH (n=21) or nonFH (n=30), on diet plus stable atorvastatin therapy (atorvaRx) or nonFH (n=10) on diet alone enrolled in this clinical trial. Subjects on stable atorvastatin therapy had LDL-C≧2.6 mmol/L and those on diet alone had LDL-C≧3.4 mmol/L. 316P at doses of 50, 100 and 150 mg was administered subcutaneously (sc) at 1, 29 and 43 days. The primary endpoint was the incidence and severity of treatment emergent adverse events (TEAE). The primary efficacy endpoint was percent and absolute change in serum LDL-C from baseline to each visit. Additional endpoints included apolipoprotein (apo) B, total cholesterol, HDL-C, VLDL-C, and the ratio of apoB to apoA1. 109 patients were screened, and 61 patients were randomized (14 placebo, 47 316P) with 100% completing 148+/−7 days of treatment and follow up. Compared to the nonFH cohort, the FH group was younger (mean 40 vs. 52 yrs), had more males (81% vs. 57%) and was on higher doses of atorvastatin (52% on 40 mg vs. 3%). Baseline LDL-C was 3.45, 2.88 and 4.46 mmol/L in the FH, nonFH atorvaRx and nonFH diet only groups, respectively.

Which “mean % reduction in LDL-C on day 57” value (50 mg sc at days 1, 29 and 43) does the source give for “316P: fully human anti-PCSK9 antibody comprising a HCVR as shown in SEQ ID NO: 90 and LCVR as shown in SEQ ID NO: 92 [Antibody 316P]” here?
The value was 35.6%.

What about the “mean % reduction in LDL-C on day 57” value (100 mg sc at days 1, 29 and 43) of the same substance?
The value was 50.2%.

What about the “mean % reduction in LDL-C on day 57” value (150 mg sc at days 1, 29 and 43) of the same substance?
The value was 57.5%.

What about the “HDL-C” value (50, 100 and 150 mg sc) of the same substance?
Its value is “Favourable changes”.

And the “apoA1” value (50, 100 and 150 mg sc)?
Its value is “Favourable changes”.

What about the “liver function testing or other laboratory parameters” value (50, 100 and 150 mg sc) of the same substance?
The value was “No drug-related adverse effects”.

What about the serious adverse events (50, 100 and 150 mg sc) of the same substance?
Its serious adverse events is “No serious adverse events”.

What about the tolerability (50, 100 and 150 mg sc) of the same substance?
The tolerability was “generally well-tolerated”.

What about the “response between FH and nonFH or those on or not on statin therapy” value (no statistical analysis performed) of the same substance?
Its value is “did not appear to be differences in response”.
